According to US7767659B2, “Synthesis of naturally occurring ecteinascidins and related compounds” (Pharma Mar, S.A., priority 2002, dated 2010):
Where two headings read alike, the source gives them in different places.

Tests used:
K-562 = assay: Inhibition of cells growth by colorimetric assay (SRB); details: Homo sapiens, K562, 48 h
Method: (§1) This form of the assay employs 96 well cell culture microplates of 9 mm diameter (Faircloth, 1988; Mosmann, 1983). Most of the cell lines are obtained from American Type Culture Collection (ATCC) derived from different human cancer types.
(§2) Cells are maintained in RPMI 1640 10% FBS, supplemented with 0.1 g/l penicillin and 0.1 g/l streptomycin sulfate and then incubated at 37° C., 5% CO2 and 98% humidity. For the experiments, cells were harvested from subconfluent cultures using trypsin and resuspended in fresh medium before plating.
(§3) Cells are seeded in 96 well microtiter plates, at 5×10^3 cells per well in aliquots of 195 μl medium, and they are allowed to attach to the plate surface by growing in drug free medium for 18 hours. Afterward, samples are added in aliquots of 5 μl in a ranging from 10 to 10^−8 μg/ml, dissolved in DMSO/EtOH/PBS (0.5:0.5:99). After 48 hours exposure, the antitumor effect are measured by the SRB methodology: cells are fixed by adding 50 μl of cold 50% (wt/vol) trichloroacetic acid (TCA) and incubating for 60 minutes at 4° C. Plates are washed with deionized water and dried. One hundred μl of SRB solution (0.4% wt/vol in 1% acetic acid) is added to each microtiter well and incubated for 10 minutes at room temperature. Unbound SRB is removed by washing with 1% acetic acid. Plates are air dried and bound stain is solubilzed with Tris buffer. Optical densities are read on a automated spectrophotometric plate reader at a single wavelength of 490 nm.
(§4) The values for mean +/− SD of data from triplicate wells are calculated. Some parameters for cellular responses can be calculated: GI=growth inhibition, TGI=total growth inhibition (cytostatic effect) and LC=cell killing (cytotoxic effect).

LNCaP = assay: as above; details: Homo sapiens, LNCaP, 48 h
Method: as §1, §2, §3, §4

HT-29 = assay: cells; details: Homo sapiens, HT-29, 48 h
Method: as §1, §2, §3, §4

A-549 = assay: cells; details: Homo sapiens, A549, 48 h
Method: as §1, §2, §3, §4

LoVo-Dox = assay: Inhibition of cells growth by colorimetric assay (SRB); details: Homo sapiens, 48 h
Method: as §1, §2, §3, §4

HeLa-APL = assay: as above; details: Homo sapiens, 48 h
Method: as §1, §2, §3, §4

DU-145 = assay: as above; details: Homo sapiens, DU-145, 48 h
Method: as §1, §2, §3, §4

IGROV-1 = assay: as above; details: Homo sapiens, IGROV-1, 48 h
Method: as §1, §2, §3, §4

SK-MEL-28 = assay: as above; details: Homo sapiens, SK-MEL-28, 48 h
Method: as §1, §2, §3, §4

HeLa = assay: as above; details: Homo sapiens, HeLa, 48 h
Method: as §1, §2, §3, §4

IGROV-ET = assay: as above; details: Homo sapiens, 48 h
Method: as §1, §2, §3, §4

PANC-1 = assay: as above; details: Homo sapiens, PANC-1, 48 h
Method: as §1, §2, §3, §4

LoVo = assay: cells; details: Homo sapiens, LoVo, 48 h
Method: as §1, §2, §3, §4

`C=CCN1[C@@H]2c3c(cc(C)c(OC)c3OCOCCOC)C[C@H]1[C@H](C#N)N1C2[C@@H]2SC[C@@H](NC(=O)OC(C)(C)C)C(=O)OC[C@H]1c1c3c(c(C)c(OC(C)=O)c12)OCO3` (some centres unmarked) [compound 11] was tested, and the GI50 (K-562; read-out: GI50 K562) was 4760 nM and the GI50 (LNCaP; read-out: GI50 LNCAP) was 5840 nM.

With `COc1cc2c(cc1O)CCN[C@]21C[S+]([O-])[C@@H]2c3c(OC(C)=O)c(C)c4c(c3[C@H](COC1=O)N1C2C2c3c(cc(C)c(OC)c3O)C[C@@H]([C@@H]1C#N)N2C)OCO4` (some centres unmarked) [compound 17] the GI50 (HT-29; read-out: GI50 HT29) was 39.1 nM, the CC50 (HT-29; read-out: LC50 HT29) was 12700 nM and the IC (TGI) (HT-29; read-out: TGI HT29) was 86 nM. It also gave a GI50 (A-549; read-out: GI50 A549) of 22.9 nM, a CC50 (A-549; read-out: LC50 A549) of 117 nM and an IC (TGI) (A-549; read-out: TGI A549) of 52.1 nM.

For `COc1c(C)cc2c(c1O)[C@@H]1C3[C@@H]4SCC(N)C(=O)OC[C@@H](c5c6c(c(C)c(OC(C)=O)c54)OCO6)N3[C@@H](C#N)C(C2)N1C` (some centres unmarked) [compound 18], the GI50 (HT-29; read-out: GI50 HT29) was 80.4 nM, the CC50 (HT-29; read-out: LC50 HT29) was 80400 nM and the IC (TGI) (HT-29; read-out: TGI HT29) was 643 nM. For the same compound, the GI50 (A-549; read-out: GI50 A549) was 161 nM, the CC50 (A-549; read-out: LC50 A549) was 8040 nM and the IC (TGI) (A-549; read-out: TGI A549) was 643 nM.

`COc1c(C)cc2c(c1O)[C@H]1N[C@@H](C2)[C@H](C#N)N2C1[C@@H]1SCC(=O)C(=O)OC[C@H]2c2c3c(c(C)c(OC(C)=O)c21)OCO3` (some centres unmarked) [compound 42] gave a GI50 (LoVo-Dox; read-out: LOVO-DOX GI50) of 515 nM, a CC50 (LoVo-Dox; read-out: LOVO-DOX LC50) of 16500 nM and an IC (TGI) (LoVo-Dox; read-out: LOVO-DOX TGI) of 1440 nM. It also gave a GI50 (HeLa-APL; read-out: HELA-APL GI50) of 34.6 nM, a CC50 (HeLa-APL; read-out: HELA-APL LC50) of 130 nM and an IC (TGI) (HeLa-APL; read-out: HELA-APL TGI) of 67 nM. It also gave a GI50 (K-562; read-out: K562 GI50) of 17.8 nM, a CC50 (K-562; read-out: K562 LC50) of 694 nM and an IC (TGI) (K-562; read-out: K562 TGI) of 59.6 nM. For the same compound, the GI50 (DU-145; read-out: DU145 GI50) was 37.4 nM, the CC50 (DU-145; read-out: DU145 LC50) was 247 nM and the IC (TGI) (DU-145; read-out: DU145 TGI) was 82.5 nM. For the same compound, the GI50 (IGROV-1; read-out: IGROV GI50) was 28.6 nM, the CC50 (IGROV-1; read-out: IGROV LC50) was 153 nM and the IC (TGI) (IGROV-1; read-out: IGROV TGI) was 66.3 nM. The GI50 (SK-MEL-28; read-out: MEL-28 GI50) was 30.1 nM, the CC50 (SK-MEL-28; read-out: MEL-28 LC50) was 107 nM and the IC (TGI) (SK-MEL-28; read-out: MEL-28 TGI) was 56.8 nM. For the same compound, the GI50 (LNCaP; read-out: LNCAP GI50) was 5.96 nM, the CC50 (LNCaP; read-out: LNCAP LC50) was 63.7 nM and the IC (TGI) (LNCaP; read-out: LNCAP TGI) was 22.4 nM. The GI50 (HeLa; read-out: HELA GI50) was 28.1 nM, the CC50 (HeLa; read-out: HELA LC50) was 139 nM and the IC (TGI) (HeLa; read-out: HELA TGI) was 62.5 nM. The GI50 (IGROV-ET; read-out: IGROV-ET GI50) was 280 nM, the CC50 (IGROV-ET; read-out: IGROV-ET LC50) was 16500 nM and the IC (TGI) (IGROV-ET; read-out: IGROV-ET TGI) was 1020 nM. It also gave a GI50 (PANC-1; read-out: PANC-1 GI50) of 39 nM, a CC50 (PANC-1; read-out: PANC-1 LC50) of 5270 nM and an IC (TGI) (PANC-1; read-out: PANC-1 TGI) of 11.5 nM. The GI50 (LoVo; read-out: LOVO GI50) was 37.7 nM, the CC50 (LoVo; read-out: LOVO LC50) was 2930 nM and the IC (TGI) (LoVo; read-out: LOVO TGI) was 72.6 nM. For the same compound, the GI50 (HT-29; read-out: HT29 GI50) was 39.7 nM, the CC50 (HT-29; read-out: HT29 LC50) was 16500 nM and the IC (TGI) (HT-29; read-out: HT29 TGI) was 131 nM. It also gave a GI50 (A-549; read-out: A549 GI50) of 57.4 nM, a CC50 (A-549; read-out: A549 LC50) of 2370 nM and an IC (TGI) (A-549; read-out: A549 TGI) of 147 nM.

`C=CCOc1c(C)c2c(c3c1CC1[C@H]4c5c(cc(C)c(OC)c5O)C[C@@H]([C@H](C#N)N1[C@H]3CNC(=O)[C@H](CSCC1c3ccccc3-c3ccccc31)NC(=O)OC(C)(C)C)N4C)OCO2` (some centres unmarked) [compound 69] gave a GI50 (HT-29; read-out: HT29 GI50) of 1110 nM, a CC50 (HT-29; read-out: HT29 LC50) of 11100 nM and an IC (TGI) (HT-29; read-out: HT29 TGI) of 1110 nM. The GI50 (A-549; read-out: A549 GI50) was 5570 nM, the CC50 (A-549; read-out: A549 LC50) was 55700 nM and the IC (TGI) (A-549; read-out: A549 TGI) was 22300 nM.

`C=CCOc1c(C)c2c(c3c1CC1[C@H]4c5c(cc(C)c(OC)c5OCOCCOC)C[C@@H]([C@H](C#N)N1[C@H]3CNC(=O)[C@H](CSCC1c3ccccc3-c3ccccc31)NC(=O)OC(C)(C)C)N4C)OCO2` (some centres unmarked) [compound 70] was tested, and the GI50 (HT-29; read-out: HT29 GI50) was 10100 nM, the CC50 (HT-29; read-out: HT29 LC50) was 50600 nM and the IC (TGI) (HT-29; read-out: HT29 TGI) was 10100 nM. The GI50 (A-549; read-out: A549 GI50) was 5060 nM, the CC50 (A-549; read-out: A549 LC50) was 50600 nM and the IC (TGI) (A-549; read-out: A549 TGI) was 50600 nM.

`COCCOCOc1c(OC)c(C)cc2c1[C@@H]1C3CC4(O)C(=O)C(C)=C5OCOC5=C4[C@H](CNC(=O)[C@H](CSCC4c5ccccc5-c5ccccc54)NC(=O)OC(C)(C)C)N3[C@@H](C#N)[C@H](C2)N1C` (some centres unmarked) [compound 72] was tested, and the GI50 (HT-29; read-out: HT29 GI50) was 1040 nM, the CC50 (HT-29; read-out: HT29 LC50) was 5190 nM and the IC (TGI) (HT-29; read-out: HT29 TGI) was 1040 nM. For the same compound, the GI50 (A-549; read-out: A549 GI50) was 51.9 nM, the CC50 (A-549; read-out: A549 LC50) was 4150 nM and the IC (TGI) (A-549; read-out: A549 TGI) was 104 nM.
